Results published in the kinase profiling compilation of Christmann-Franck et al. (2016).

Assays:
Assay in all cases: KINOMEscan competition binding
Settings in all cases: compound 2.0 µM
TAOK2 (human) = TAOK2 (human) (UniProt Q9UL54)
AURKA (human) = AURKA (human) (UniProt O14965)
PIM1 (human) = PIM1 (human) (UniProt P11309)
STK39 (human) = STK39 (human) (UniProt Q9UEW8)
[1] = tested on: PIK3CA (human), P42336 [C420R]
RPS6KA2 KD2 (human) = RPS6KA2 KD2 (human) (UniProt Q15349)
CSNK1A1L (human) = CSNK1A1L (human) (UniProt Q8N752)
FRK (human) = FRK (human) (UniProt P42685)
IKBKB (human) = IKBKB (human) (UniProt O14920)
ADCK4 (human) = ADCK4 (human) (UniProt Q96D53)
ROCK1 (human) = ROCK1 (human) (UniProt Q13464)
PRKACB (human) = PRKACB (human) (UniProt P22694)
FER (human) = FER (human) (UniProt P16591)
DCLK3 (human) = DCLK3 (human) (UniProt Q9C098)
LRRK2 (human) = LRRK2 (human) (UniProt Q5S007)
[2] = molecular target: TYK2 JH1 catalytic (human) (UniProt P29597)
RPS6KA6 KD2 (human) = RPS6KA6 KD2 (human) (UniProt Q9UK32)
NUAK1 (human) = NUAK1 (human) (UniProt O60285)
NEK4 (human) = NEK4 (human) (UniProt P51957)
TNK2 (human) = TNK2 (human) (UniProt Q07912)
[3] = tested on: KIT (human), P10721 [D816V]
PRKG2 (human) = PRKG2 (human) (UniProt Q13237)
AKT2 (human) = AKT2 (human) (UniProt P31751)
BTK (human) = BTK (human) (UniProt Q06187)
ERBB3 (human) = ERBB3 (human) (UniProt P21860)
CDK13 (human) = CDK13 (human) (UniProt Q14004)
PTK2 (human) = PTK2 (human) (UniProt Q05397)
MAPK9 (human) = MAPK9 (human) (UniProt P45984)
[4] = tested on: KIT (human), P10721 [A829P]
PAK1 (human) = PAK1 (human) (UniProt Q13153)
FLT4 (human) = FLT4 (human) (UniProt P35916)
KDR (human) = KDR (human) (UniProt P35968)
SLK (human) = SLK (human) (UniProt Q9H2G2)
MAPK15 (human) = MAPK15 (human) (UniProt Q8TD08)
MAP3K13 (human) = MAP3K13 (human) (UniProt O43283)
NEK6 (human) = NEK6 (human) (UniProt Q9HC98)
MAPK13 (human) = MAPK13 (human) (UniProt O15264)
MAP3K7 (human) = MAP3K7 (human) (UniProt O43318)
PDGFRB (human) = PDGFRB (human) (UniProt P09619)
ZAP70 (human) = ZAP70 (human) (UniProt P43403)
MATK (human) = MATK (human) (UniProt P42679)
MAP2K4 (human) = MAP2K4 (human) (UniProt P45985)
PRKAA1 (human) = PRKAA1 (human) (UniProt Q13131)

KIT (human), P10721 [A829P], sequence (P10721 whole entry A829P, looked up): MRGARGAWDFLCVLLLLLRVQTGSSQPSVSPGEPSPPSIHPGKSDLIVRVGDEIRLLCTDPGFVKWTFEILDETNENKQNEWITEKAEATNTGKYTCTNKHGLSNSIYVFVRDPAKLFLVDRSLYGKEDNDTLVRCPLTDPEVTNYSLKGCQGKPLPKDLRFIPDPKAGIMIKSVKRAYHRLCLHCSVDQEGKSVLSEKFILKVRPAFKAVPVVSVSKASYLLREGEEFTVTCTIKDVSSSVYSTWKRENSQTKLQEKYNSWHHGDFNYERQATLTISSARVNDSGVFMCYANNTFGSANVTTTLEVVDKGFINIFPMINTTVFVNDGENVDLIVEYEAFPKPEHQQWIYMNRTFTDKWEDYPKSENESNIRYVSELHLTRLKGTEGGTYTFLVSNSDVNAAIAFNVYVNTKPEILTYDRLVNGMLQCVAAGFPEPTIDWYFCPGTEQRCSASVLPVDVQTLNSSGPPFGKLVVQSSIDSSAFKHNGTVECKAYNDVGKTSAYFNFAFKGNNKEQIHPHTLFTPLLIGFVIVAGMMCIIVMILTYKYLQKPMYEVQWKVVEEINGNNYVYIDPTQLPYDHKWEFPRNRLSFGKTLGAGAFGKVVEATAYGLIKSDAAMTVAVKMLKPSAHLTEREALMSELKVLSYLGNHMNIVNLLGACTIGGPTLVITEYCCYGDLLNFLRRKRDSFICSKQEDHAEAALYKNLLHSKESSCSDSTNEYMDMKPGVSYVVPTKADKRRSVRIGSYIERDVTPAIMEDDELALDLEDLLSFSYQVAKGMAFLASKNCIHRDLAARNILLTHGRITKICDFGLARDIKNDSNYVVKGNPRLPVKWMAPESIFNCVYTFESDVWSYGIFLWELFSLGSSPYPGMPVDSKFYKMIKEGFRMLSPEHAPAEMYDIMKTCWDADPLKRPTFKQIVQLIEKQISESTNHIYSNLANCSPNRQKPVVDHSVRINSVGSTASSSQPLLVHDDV
MAPK9 (human), sequence (P45984 whole entry, looked up): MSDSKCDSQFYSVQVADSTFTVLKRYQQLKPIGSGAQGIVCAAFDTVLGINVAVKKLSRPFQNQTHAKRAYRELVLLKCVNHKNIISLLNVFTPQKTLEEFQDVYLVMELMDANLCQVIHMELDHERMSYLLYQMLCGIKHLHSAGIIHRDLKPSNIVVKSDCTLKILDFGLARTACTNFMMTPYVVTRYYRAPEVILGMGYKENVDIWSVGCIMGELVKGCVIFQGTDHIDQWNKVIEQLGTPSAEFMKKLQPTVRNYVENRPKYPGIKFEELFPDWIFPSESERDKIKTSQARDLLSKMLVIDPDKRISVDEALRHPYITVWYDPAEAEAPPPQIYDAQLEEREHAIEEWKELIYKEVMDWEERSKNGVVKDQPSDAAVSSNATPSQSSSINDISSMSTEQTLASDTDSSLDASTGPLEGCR
FER (human), sequence (P16591 whole entry, looked up): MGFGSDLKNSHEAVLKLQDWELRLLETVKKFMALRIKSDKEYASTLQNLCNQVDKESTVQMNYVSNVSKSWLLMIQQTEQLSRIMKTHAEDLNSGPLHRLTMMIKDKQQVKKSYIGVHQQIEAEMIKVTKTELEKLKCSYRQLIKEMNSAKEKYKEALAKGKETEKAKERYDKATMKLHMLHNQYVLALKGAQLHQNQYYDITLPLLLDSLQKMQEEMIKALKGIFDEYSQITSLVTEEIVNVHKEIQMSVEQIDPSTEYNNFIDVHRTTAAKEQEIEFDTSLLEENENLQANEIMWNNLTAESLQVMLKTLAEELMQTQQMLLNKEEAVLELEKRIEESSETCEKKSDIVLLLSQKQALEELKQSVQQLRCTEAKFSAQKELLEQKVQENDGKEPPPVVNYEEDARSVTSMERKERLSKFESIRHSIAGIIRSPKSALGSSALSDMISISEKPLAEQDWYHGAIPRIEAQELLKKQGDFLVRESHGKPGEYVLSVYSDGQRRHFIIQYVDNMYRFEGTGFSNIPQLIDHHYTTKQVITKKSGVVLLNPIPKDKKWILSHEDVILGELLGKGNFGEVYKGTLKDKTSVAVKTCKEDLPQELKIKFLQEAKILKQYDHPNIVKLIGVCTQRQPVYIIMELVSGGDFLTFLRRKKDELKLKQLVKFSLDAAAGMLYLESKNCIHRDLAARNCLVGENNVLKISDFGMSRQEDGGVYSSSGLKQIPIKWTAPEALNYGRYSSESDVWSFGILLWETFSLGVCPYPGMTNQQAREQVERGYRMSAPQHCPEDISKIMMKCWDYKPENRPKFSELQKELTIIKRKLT
TNK2 (human), sequence (Q07912 whole entry, looked up): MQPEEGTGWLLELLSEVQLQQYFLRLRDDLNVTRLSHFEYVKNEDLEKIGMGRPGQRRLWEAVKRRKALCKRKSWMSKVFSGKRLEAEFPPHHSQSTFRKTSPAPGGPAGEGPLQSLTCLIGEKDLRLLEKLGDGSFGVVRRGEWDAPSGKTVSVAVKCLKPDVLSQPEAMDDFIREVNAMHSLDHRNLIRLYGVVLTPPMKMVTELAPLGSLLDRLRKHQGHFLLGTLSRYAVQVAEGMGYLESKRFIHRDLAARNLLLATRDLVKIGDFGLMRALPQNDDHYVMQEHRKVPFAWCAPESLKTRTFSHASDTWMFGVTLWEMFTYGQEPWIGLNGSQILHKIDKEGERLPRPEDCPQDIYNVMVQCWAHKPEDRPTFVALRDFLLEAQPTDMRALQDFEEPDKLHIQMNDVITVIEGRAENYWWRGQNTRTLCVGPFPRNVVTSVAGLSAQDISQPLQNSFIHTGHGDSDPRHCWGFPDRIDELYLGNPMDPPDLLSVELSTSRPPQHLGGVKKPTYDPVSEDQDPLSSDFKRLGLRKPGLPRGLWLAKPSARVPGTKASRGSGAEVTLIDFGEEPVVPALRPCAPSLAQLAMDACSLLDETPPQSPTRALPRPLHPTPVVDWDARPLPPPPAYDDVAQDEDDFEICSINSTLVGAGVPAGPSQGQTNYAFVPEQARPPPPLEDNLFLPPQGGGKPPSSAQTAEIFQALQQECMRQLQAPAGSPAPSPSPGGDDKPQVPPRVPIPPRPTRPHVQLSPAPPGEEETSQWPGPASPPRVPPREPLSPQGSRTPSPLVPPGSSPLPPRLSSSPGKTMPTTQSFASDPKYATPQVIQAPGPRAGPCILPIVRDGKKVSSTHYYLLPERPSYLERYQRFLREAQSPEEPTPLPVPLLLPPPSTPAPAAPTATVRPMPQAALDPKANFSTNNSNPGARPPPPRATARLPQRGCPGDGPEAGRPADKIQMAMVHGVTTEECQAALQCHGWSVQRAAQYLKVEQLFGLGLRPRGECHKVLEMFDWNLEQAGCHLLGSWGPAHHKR
FLT4 (human), sequence (P35916 whole entry, looked up): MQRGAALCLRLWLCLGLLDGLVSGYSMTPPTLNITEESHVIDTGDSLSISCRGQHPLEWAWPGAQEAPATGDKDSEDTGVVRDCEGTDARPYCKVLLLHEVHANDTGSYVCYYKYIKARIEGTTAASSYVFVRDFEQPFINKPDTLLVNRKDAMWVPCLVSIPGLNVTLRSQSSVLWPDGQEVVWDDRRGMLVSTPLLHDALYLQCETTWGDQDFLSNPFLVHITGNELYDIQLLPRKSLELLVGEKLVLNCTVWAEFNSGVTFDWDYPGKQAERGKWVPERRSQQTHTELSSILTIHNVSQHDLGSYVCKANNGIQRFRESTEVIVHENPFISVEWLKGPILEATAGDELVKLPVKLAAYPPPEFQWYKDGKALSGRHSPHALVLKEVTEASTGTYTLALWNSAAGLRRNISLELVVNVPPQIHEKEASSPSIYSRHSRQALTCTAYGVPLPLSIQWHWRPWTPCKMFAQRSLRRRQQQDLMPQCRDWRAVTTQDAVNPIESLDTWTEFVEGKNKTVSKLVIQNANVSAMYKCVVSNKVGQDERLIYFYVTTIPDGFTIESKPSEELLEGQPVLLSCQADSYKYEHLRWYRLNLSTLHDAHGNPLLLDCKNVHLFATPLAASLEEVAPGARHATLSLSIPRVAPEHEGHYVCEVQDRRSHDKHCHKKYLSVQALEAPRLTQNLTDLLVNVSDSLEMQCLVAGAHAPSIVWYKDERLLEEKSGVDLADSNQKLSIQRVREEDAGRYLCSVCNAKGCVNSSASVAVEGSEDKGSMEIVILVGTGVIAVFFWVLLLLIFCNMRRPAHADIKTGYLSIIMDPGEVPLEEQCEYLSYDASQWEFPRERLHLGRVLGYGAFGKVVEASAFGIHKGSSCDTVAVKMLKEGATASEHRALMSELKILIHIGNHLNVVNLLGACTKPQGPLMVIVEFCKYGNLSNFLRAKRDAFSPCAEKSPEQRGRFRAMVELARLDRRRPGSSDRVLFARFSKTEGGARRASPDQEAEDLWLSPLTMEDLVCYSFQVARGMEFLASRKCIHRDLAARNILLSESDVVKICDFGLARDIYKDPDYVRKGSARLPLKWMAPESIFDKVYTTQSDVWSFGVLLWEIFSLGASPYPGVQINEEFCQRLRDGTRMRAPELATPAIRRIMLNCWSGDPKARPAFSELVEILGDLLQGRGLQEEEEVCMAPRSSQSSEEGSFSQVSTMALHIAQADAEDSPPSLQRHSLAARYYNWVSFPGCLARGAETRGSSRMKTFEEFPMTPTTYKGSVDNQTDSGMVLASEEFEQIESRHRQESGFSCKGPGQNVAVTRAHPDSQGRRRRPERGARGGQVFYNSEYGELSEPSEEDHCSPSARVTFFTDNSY
KIT (human), P10721 [D816V], sequence (P10721 whole entry D816V, looked up): as the sequence (P10721 whole entry A829P, looked up) above, with D816V, P829A counted along it
MAPK13 (human), sequence (O15264 whole entry, looked up): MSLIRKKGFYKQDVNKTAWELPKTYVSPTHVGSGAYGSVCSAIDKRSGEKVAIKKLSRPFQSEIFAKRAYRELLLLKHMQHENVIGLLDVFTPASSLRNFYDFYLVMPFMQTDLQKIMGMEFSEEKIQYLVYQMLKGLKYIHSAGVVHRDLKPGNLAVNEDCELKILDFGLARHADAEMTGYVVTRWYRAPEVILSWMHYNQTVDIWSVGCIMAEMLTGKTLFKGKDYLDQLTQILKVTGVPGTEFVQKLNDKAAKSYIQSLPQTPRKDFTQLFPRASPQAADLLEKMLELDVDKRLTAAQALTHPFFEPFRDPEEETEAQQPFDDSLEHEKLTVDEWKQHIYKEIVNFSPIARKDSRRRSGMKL

Compound N#Cc1ccc2ncnc(NCCc3ccc4ccccc4c3)c2c1 has a kinase still bound, per cent of control (TAOK2 (human)) of 83%, a kinase still bound, per cent of control (AURKA (human)) of 94% and a kinase still bound, per cent of control (PIM1 (human)) of 95%. For the same compound, the kinase still bound, per cent of control (STK39 (human)) was 98%, the kinase still bound, per cent of control [1] was 100% and the kinase still bound, per cent of control (RPS6KA2 KD2 (human)) was 85%. It also gave a kinase still bound, per cent of control (CSNK1A1L (human)) of 89%, a kinase still bound, per cent of control (FRK (human)) of 100% and a kinase still bound, per cent of control (IKBKB (human)) of 100%. The kinase still bound, per cent of control (ADCK4 (human)) was 100%, the kinase still bound, per cent of control (ROCK1 (human)) was 100% and the kinase still bound, per cent of control (PRKACB (human)) was 100%. The kinase still bound, per cent of control (FER (human)) was 100%, the kinase still bound, per cent of control (DCLK3 (human)) was 99% and the kinase still bound, per cent of control (LRRK2 (human)) was 85%. For the same compound, the kinase still bound, per cent of control [2] was 93%, the kinase still bound, per cent of control (RPS6KA6 KD2 (human)) was 86% and the kinase still bound, per cent of control (NUAK1 (human)) was 75%. The kinase still bound, per cent of control (NEK4 (human)) was 100%, the kinase still bound, per cent of control (TNK2 (human)) was 97% and the kinase still bound, per cent of control [3] was 85%. It also gave a kinase still bound, per cent of control (PRKG2 (human)) of 100%, a kinase still bound, per cent of control (AKT2 (human)) of 100% and a kinase still bound, per cent of control (BTK (human)) of 86%. The kinase still bound, per cent of control (ERBB3 (human)) was 100%, the kinase still bound, per cent of control (CDK13 (human)) was 100% and the kinase still bound, per cent of control (PTK2 (human)) was 88%. The kinase still bound, per cent of control (MAPK9 (human)) was 97%, the kinase still bound, per cent of control [4] was 89% and the kinase still bound, per cent of control (PAK1 (human)) was 82%. The kinase still bound, per cent of control (FLT4 (human)) was 100%, the kinase still bound, per cent of control (KDR (human)) was 86% and the kinase still bound, per cent of control (SLK (human)) was 73%. For the same compound, the kinase still bound, per cent of control (MAPK15 (human)) was 84%, the kinase still bound, per cent of control (MAP3K13 (human)) was 100% and the kinase still bound, per cent of control (NEK6 (human)) was 96%. For the same compound, the kinase still bound, per cent of control (MAPK13 (human)) was 100%, the kinase still bound, per cent of control (MAP3K7 (human)) was 78% and the kinase still bound, per cent of control (PDGFRB (human)) was 100%. It also gave a kinase still bound, per cent of control (ZAP70 (human)) of 94%, a kinase still bound, per cent of control (MATK (human)) of 100% and a kinase still bound, per cent of control (MAP2K4 (human)) of 89%. The kinase still bound, per cent of control (PRKAA1 (human)) was 89%.
